# Experimental data: patent EP1565179B1, “COMPOSITION COMPRISING A CARBAMIC ACID DERIVATIVE, ITS USE AS COSMETIC AND MEDICINE” (Laboratoires Expanscience, priority 2002, dated 2004)
# Legend:
# [1] = test system: cellules dendritiques générées in vitro à partir de précurseurs CD34+ issus de sang de cordon; assay: Migration of hapten BB-sensitised in vitro generated dendritic/Langerhans cells through Matrigel in a two-compartment culture chamber; type: cell-based
# Protocol: Des cellules mononuclées ont été obtenues à partir de sang de cordon ombilical de donneurs sains, par centrifugation sur Ficoll. Les cellules CD34+ ont ensuite été purifiées par immunosélection à l'aide d'anticorps spécifique et de billes magnétiques (Miltenyi Biotech, Allemagne). Les cellules CD34+ ont été cultivées en présence de GM-CSF (100 ng/ml), TNF-α (2,5 ng/ml) en RPMI additionné de 10% sérum de veau foetal, pendant 5 jours. L'addition de TGF-β1, facteur qui favorise la différenciation des cellules vers la voie cellules de Langerhans, a été réalisée au cinquième jour de culture.
# Le milieu de base choisi pour l'ensemble de l'étude a été le RPMI 1640 (Gibco BRL, France). Le composé A fourni par EXPANSCIENCE, à la concentration de 10^-2 M en solution dans du DMSO (Diméthyl Sulfoxide), a été dilué en RPMI-1640 et testé à 1 µM.
# Les cellules ont été traitées, au septième jour, par l'haptène BB (Base de Brandowski, 1,17 µg/ml), pendant 24 h, puis soumises au test de migration.
# Un système de chambre de culture à deux compartiments (Falcon, Becton Dickinson, France) a été utilisé. Le compartiment supérieur est séparé du compartiment inférieur par une membrane de porosité 8 µm, sur laquelle sont déposées 50 µg/cm^2 de Matrigel. […]
# [2] = test system: cellules de Langerhans (CL) et cellules dendritiques (CD); assay: Migration of skin dendritic cells (FITC+) to draining lymph nodes in mice after topical FITC hapten application; type: in vivo, souris; conditions: 0,5% topical formulation on mouse ears twice daily for 4 days; 1,5% FITC; lymph nodes analysed 24 h later
# Text: Le FITC (Fluorescéine isothiocyanate, Sigma, St. Louis, MO) a été dilué extemporanément dans un mélange acétone: dibutylphthalate (1:1).
# L'acide carbamique A (acide 1-Hydroxyméthyl-tridécyl carbamique) et le LU105 (LU 105 est un inhibiteur de MMPs, correspondant à un extrait peptidique de lupin blanc commercialisé par la Société Expanscience sous le nom de marque Actimp 193®) ont été fournis par les "Laboratoires Expanscience", et formulés seuls ou en association dans un véhicule inerte compatible avec une application topique tel que décrit à l'exemple 1 ci-dessus [Acide carbamique A (0,5%) ± LU105 (2%)]. Les différentes formulations ont été appliquées sur les oreilles de souris deux fois par jour pendant 4 jours consécutifs. Trois heures après la dernière application, 1,5% de FITC sont appliqués sur les deux oreilles (l'une traitée et l'autre non traitée (Contrôle)).
# L'effet des deux molécules a été évalué in vivo chez la souris. La peau des deux oreilles est badigeonnée avec 1,5% FITC (2X5 µl). 24 h après, les souris sont sacrifiées et une suspension cellulaire est préparée à partir des ganglions auriculaires et cervicaux (ganglions drainants, ci-après dénommés GL) ou à partir des ganglions popliteaux (ganglions non drainants, contrôle négatif). Les tissus ont été découpés et les cellules sont séparées par filtration (filtre […], Falcon; Becton Dickinson), puis lavés. […]
compound,measurement,setting,value
"CCCCCCCCCCCCC(CO)NC(=O)O (stereo not drawn) [Composé A, (1-Hydroxyméthyl-tridécyl)-acide carbamique]",Pourcentage de cellules dendritiques générées in vitro ayant migré,"[1]; 1 µM, cells sensitised with hapten BB (1,17 µg/ml, 24 h), 18 h incubation at 37°C, BB-only control 20",15%
same,inhibition at 1 µM,[1]; read-out: inhibition de la migration des cellules dendritiques générées in vitro et activées par l'haptène BB,25%
same,Inhibition de la migration en %,[2],25%
